# How the values were obtained:
# Format in all cases: in vivo, swine
# sows (PIC Line C-15x326) [1] = test: Effect of L-carnitine fed during gestation, lactation or both on sow and litter performance; details: for Litter birth weight / Litter weight at weaning / Litter weight gain / Pig birth weight / Pig wean weight / Pig weight gain / Survivability: 50 ppm L-carnitine in diet; for Pigs weaned per litter / Average daily feed intake, overall / Average daily feed intake, wk 1 / Average daily feed intake, wk 2: 50 ppm L-carnitine; for Pigs weaned per litter: pigs per litter on day 2 as covariate; for Average daily feed intake, overall / Average daily feed intake, wk 1 / Average daily feed intake, wk 2: sow lactation feed intake
# Source text: A total of 307 sows (PIC Line C-15x326) were used to determine the effect of feeding 50 ppm L-carnitine on the sow and litter performance. Sows were randomly assigned to either control or test dietary treatments. The three test treatments were designated as follows: (i) control/carnitine (in which carnitine was supplemented only during the period of lactation); (ii) carnitine/control (in which carnitine was supplemented only during the period of gestation) and (iii) carnitine/carnitine (in which carnitine was supplemented during the periods of both gestation and lactation).
# A gestation diet was formulated to contain nutrients in excess of NRC (1988) estimates, and included 79.51% milo; 15.22% soybean meal (46.5% CP); 2.51% monocalcium phosphate; 1.11% limestone; 0.5% sodium chloride; 0.25% sow premix; 0.25% vitamin premix; and 0.15% trace element premix. This diet contained 0.65% total lysine, 0.95% Ca and 0.85% P. Experimental gestation diet contained 50 ppm L-carnitine. Sows were fed 4 lb of diet/day once a day until farrowing. Sows were weighed and last rib fat debt was recorded at day 110 of gestation. At farrowing, a number of pigs born live, stillborn, and mummies were recorded. Individual pig weight and litter weight were also recorded. Within 48 hours from farrowing, litters were equalized within dietary treatment.
# A lactation diet was formulated to contain nutrients in excess of NRC (1988) estimates, and included 62.91% milo; 28.41% soybean meal (46.5% CP); 4% soybean oil; 2.33% monocalcium phosphate; 1.12% limestone; 0.5% sodium chloride; 0.25% sow premix; 0.25% vitamin premix; 0.15% trace element premix; 0.05% vitamin E and 0.02% DL-Methionine. This diet contained 1.0% total lysine, 0.95% Ca and 0.85% P. Experimental lactation diet contained 50 ppm L-carnitine. The sows were allowed ad libitum access to feed. Feed intake was measured weekly. Pigs were weighed at weaning to determine pig and litter weight. Sows were ultrasonically scanned for last rib fat debt at weaning.
# The data were analyzed by analysis of variance using GLM procedure of SAS (1988).
# sows (PIC Line C-15x326) [2] = test: Effects of L-carnitine on subsequent reproductive performance (second reproductive cycle, no carnitine); details: for Days to estrus / Farrowing rate / Number born live / Number total born: first-cycle 50 ppm L-carnitine; for Farrowing rate / Number born live / Number total born: second cycle
# Method: The effect of carnitine on subsequent reproductive performance was also measured. Sows fed diets described above were continued to be monitored during the subsequent, i.e., second cycle of reproduction. The sow diets were not supplemented with carnitine during the second cycle of reproduction to determine if carnitine had any residual effect. The total number of pigs born and the number of pigs born alive were determined. Referring to Table 5, feeding carnitine in the first reproductive cycle increased the total number of born pigs and the number of pigs born alive in the second reproductive cycle.
# sows (PIC Line C-15x326) [3] = test: Sow plasma analysis for insulin and IGF-I
# Method: Sows were bled at day 10, 60, 90 and 110 of gestation and at weaning. Plasma samples were analyzed for concentration of free and total carnitine, insulin, and insulin-like growth factor I (IGF-I). The data were analyzed by analysis of variance using GLM procedure of SAS (1988).
# [4] = gestation and lactation (carnitine/carnitine)
# [5] = gestation only (carnitine/control)
# [6] = gestation only (carnitine/control), listed as Carnitine
# [7] = lactation only (control/carnitine)
# [8] = carnitine fed in the first reproductive cycle, none in the second
compound,measurement,setting,value
C[N+](C)(C)C[C@H](O)CC(=O)[O-] [L-carnitine],Litter birth weight,sows (PIC Line C-15x326) [1]; [4],34.49 lb
same,Litter weight at weaning,sows (PIC Line C-15x326) [1]; [4],99.03 lb
same,Litter weight gain,sows (PIC Line C-15x326) [1]; [4],64.25 lb
same,Pig birth weight,sows (PIC Line C-15x326) [1]; [4],3.53 lb
same,Pig wean weight,sows (PIC Line C-15x326) [1]; [4],10.99 lb
same,Pig weight gain,sows (PIC Line C-15x326) [1]; [4],7.45 lb
same,Survivability,sows (PIC Line C-15x326) [1]; [4],90.45%
same,Litter birth weight,sows (PIC Line C-15x326) [1]; [5],increased
same,Litter weight at weaning,sows (PIC Line C-15x326) [1]; [5],increased
same,Litter weight gain,sows (PIC Line C-15x326) [1]; [5],increased
same,Pig birth weight,sows (PIC Line C-15x326) [1]; [5],increased
same,Pig wean weight,sows (PIC Line C-15x326) [1]; [5],increased
same,Pig weight gain,sows (PIC Line C-15x326) [1]; [5],increased
same,Survivability,sows (PIC Line C-15x326) [1]; [5],86.87%
same,Litter birth weight,sows (PIC Line C-15x326) [1]; [6],34.46 lb
same,Litter weight at weaning,sows (PIC Line C-15x326) [1]; [6],97.69 lb
same,Litter weight gain,sows (PIC Line C-15x326) [1]; [6],62.83 lb
same,Pig birth weight,sows (PIC Line C-15x326) [1]; [6],3.45 lb
same,Pig wean weight,sows (PIC Line C-15x326) [1]; [6],10.94 lb
same,Pig weight gain,sows (PIC Line C-15x326) [1]; [6],7.52 lb
same,Litter birth weight,sows (PIC Line C-15x326) [1]; [7],32.73 lb
same,Litter weight at weaning,sows (PIC Line C-15x326) [1]; [7],91.91 lb
same,Litter weight gain,sows (PIC Line C-15x326) [1]; [7],58.59 lb
same,Pig birth weight,sows (PIC Line C-15x326) [1]; [7],3.32 lb
same,Pig wean weight,sows (PIC Line C-15x326) [1]; [7],10.38 lb
same,Pig weight gain,sows (PIC Line C-15x326) [1]; [7],7.11 lb
same,Survivability,sows (PIC Line C-15x326) [1]; [7],86.08%
same,Pigs weaned per litter,sows (PIC Line C-15x326) [1]; [4],9.00
same,Pigs weaned per litter,sows (PIC Line C-15x326) [1]; [5],9.02
same,Pigs weaned per litter,sows (PIC Line C-15x326) [1]; [7],8.89
same,sow weight at weaning,"sows (PIC Line C-15x326) [1]; L-carnitine during gestation only, control 493, P<0.01",511 lb
same,sow weight at weaning,"sows (PIC Line C-15x326) [1]; carnitine during both gestation and lactation, control 493 lb",524 lb
same,sow or litter performance,"sows (PIC Line C-15x326) [1]; carnitine during the period of lactation only, versus control",no differences were observed
same,number of stillborn pigs per litter,"sows (PIC Line C-15x326) [1]; carnitine-supplemented diet during gestation only, control 0.76, P<0.02",0.49 stillborn pigs/litter
same,"Average daily feed intake, overall",sows (PIC Line C-15x326) [1]; [4],13.58 lb
same,"Average daily feed intake, wk 1",sows (PIC Line C-15x326) [1]; [4],11.88 lb
same,"Average daily feed intake, wk 2",sows (PIC Line C-15x326) [1]; [4],14.87 lb
same,"Average daily feed intake, overall",sows (PIC Line C-15x326) [1]; [5],13.16 lb
same,"Average daily feed intake, wk 1",sows (PIC Line C-15x326) [1]; [5],11.52 lb
same,"Average daily feed intake, wk 2",sows (PIC Line C-15x326) [1]; [5],14.70 lb
same,"Average daily feed intake, overall",sows (PIC Line C-15x326) [1]; [7],13.01 lb
same,"Average daily feed intake, wk 1",sows (PIC Line C-15x326) [1]; [7],11.55 lb
same,"Average daily feed intake, wk 2",sows (PIC Line C-15x326) [1]; [7],14.41 lb
same,number of pigs born alive in the second reproductive cycle,sows (PIC Line C-15x326) [2]; [8],increased
same,total number of born pigs in the second reproductive cycle,sows (PIC Line C-15x326) [2]; [8],increased
same,Days to estrus,sows (PIC Line C-15x326) [2]; [4],5.37 days
same,Days to estrus,sows (PIC Line C-15x326) [2]; [5],6.11 days
same,Days to estrus,sows (PIC Line C-15x326) [2]; [7],5.82 days
same,Farrowing rate,sows (PIC Line C-15x326) [2]; [4],93.2%
same,Number born live,sows (PIC Line C-15x326) [2]; [4],12.03
same,Number total born,sows (PIC Line C-15x326) [2]; [4],12.85
same,Farrowing rate,sows (PIC Line C-15x326) [2]; [5],86.5%
same,Number born live,sows (PIC Line C-15x326) [2]; [5],11.17
same,Number total born,sows (PIC Line C-15x326) [2]; [5],11.97
same,Farrowing rate,sows (PIC Line C-15x326) [2]; [7],96.3%
same,Number born live,sows (PIC Line C-15x326) [2]; [7],11.22
same,Number total born,sows (PIC Line C-15x326) [2]; [7],12.26
same,insulin levels in the plasma of sows,"sows (PIC Line C-15x326) [3]; days 10 and 60 of gestation, P<0.07",tended to increase
same,IGF-I concentration in sow plasma,sows (PIC Line C-15x326) [3]; gestation days 60 and 90,tended to increase

# — US6451856B1, “Carnitine supplemented diets for gestating and lactating swine” (Lonza Inc., priority 1996, dated 2002)
